According to patent US20090018317A1, “Reactive dyestuffs with alkylthio group and beta-sulfatoethysulfone group” (Everlight USA, Inc., priority 2007, published 2009):

Assay: Alkali-resistant solubility test (filtration of dyestuff in alkali solution)
Type: physicochemical
Details: aqueous alkali solution (Na2SiO2 and NaOH), aqueous buffer; Na2SiO2 50°Be′ = 100 g/L, NaOH 38°Be′ = 30 ml/L; filtered through No. 1 filter paper
Protocol: First, the dyestuffs of the formula (A) and the formula (1), taken with proper amounts in accordance to a preliminary test, are respectively dissolved in water. The alkali solution including 100 g/L 50°Be′ Na2SiO2 and 30 ml/L 38°Be′ NaOH is added therein, respectively. The mixture samples respectively are filtered through the No. 1 filter paper of Toyo Rosh Kaisha, Ltd. in order to estimate how many solids are residual and then to determine the alkali-resistant solubility.

For CCN(c1cccc(S(=O)(=O)CCOS(=O)(=O)O)c1)c1nc(Nc2cc(S(=O)(=O)O)cc3c2[O][Cu-]24[O]C(=O)c5ccc(S(=O)(=O)O)cc5[N]2N=C(c2ccccc2)N=[N+]34)nc(SCC(=O)O)n1 (stereo not shown) [formula (1)], the solubility was > 70 mg/mL.
